The record followed here is US9133167B2, “Antibacterial quinoline derivatives” (JANSSEN PHARMACEUTICA NV, priority 2012, dated 2015).

Assay [1] concerns Mycobacterium smegmatis (ATCC607). The experiment in a line: In-vitro anti-bacterial activity against strain M. smegmatis ATCC607 (Alamar Blue growth inhibition). Format: cell-based. The conditions noted are these: 90% inhibitory concentration for bacterial growth, 48 hours at 37° C.; for IC90: Mycolicibacterium smegmatis, read-out: IC90 (μg/ml) MSM 607. The protocol: D.1. In-Vitro Method for Testing Compounds for Anti-Bacterial Activity Against Strain M. Smegmatis ATCC607.
Flat-bottom, sterile 96-well plastic microtiter plates were filled with 180 μl of sterile deionized water, supplemented with 0.25% BSA. Subsequently, stock solutions (7.8× final test concentration) of compounds were added in 45 μl volumes to a series of duplicate wells in column 2 so as to allow evaluation of their effects on bacterial growth. Serial five-fold dilutions (45 μl in 180 μl) were made directly in the microtiter plates from column 2 to 11 using a customised robot system (Zymark Corp., Hopkinton, Mass.). Pipette tips were changed after every 3 dilutions to minimize pipetting errors with high hydrophobic compounds. Untreated control samples with (column 1) and without (column 12) inoculum were included in each microtiter plate. Approximately 250 CFU per well of bacteria inoculum, in a volume of 100 in 2.8× Mueller-Hinton broth medium, was added to the rows A to H, except column 12. The same volume of broth medium without inoculum was added to column 12 in row A to H. The cultures were incubated at 37° C. for 48 hours in a humidified 5% CO2 atmosphere (incubator with open air valve and continuous ventilation). At the end of incubation, two days after inoculation, the bacterial growth was quantitated fluorometrically. Therefore Alamar Blue (10×) was added to all wells in a volume of 20 and plates were incubated for another 2 hours at […]
The fluorescence was read in a computer-controlled fluorometer (Cytofluor, Biosearch) at an excitation wavelength of 530 nm and an emission wavelength of 590 nm (gain 30). The percentage growth inhibition achieved by the compounds was calculated according to standard methods and expressed as IC90 […] which defines the 90% inhibitory concentration for bacterial growth.
(In general: Alamar Blue is a resazurin reagent that responds to reducing activity.)

In assay [2] the test system is Staphylococcus aureus (ATCC29213). Nature of the assay: Microtitre plate assay, IC90 for bacterial growth, Staphylococcus aureus strain. It is filed as cell-based. The following applies: 90% inhibitory concentration for bacterial growth, 24 hours at 37° C.; for IC90: read-out: IC90 (μg/ml) STA B29213. The protocol: D.2. In-Vitro Method for Testing Compounds for Anti-Bacterial Activity Against a Non-Mycobacterial Strain
Preparation of Bacterial Suspensions for Susceptibility Testing:
The bacteria used in this study were grown overnight in flasks containing 100 ml Mueller-Hinton Broth (Becton Dickinson—cat. no. 275730) in sterile de-ionized water, with shaking, at 37° C. Stocks (0.5 ml/tube) were stored at −70° C. until use. Bacteria titrations were performed in microtiter plates to detect the TCID50, in which TCID50 represents the dilution that gives rise to bacterial growth in 50% of inoculated cultures. In general, an inoculum level of approximately 100 TCID50 was used for susceptibility testing.
Anti Bacterial Susceptibility Testing: IC90 Determination
Flat-bottom, sterile 96-well plastic microtiter plates were filled with 180 μl of sterile deionized water, supplemented with 0.25% BSA. Subsequently, stock solutions (7.8× final test concentration) of compounds were added in 45 μl volumes in column 2 Serial five-fold dilutions (45 μl in 180 μl) were made directly in the microtiter plates from column 2 to reach column 11. Untreated control samples with (column 1) and without (column 12) inoculum were included in each microtiter plate. Depending on the bacteria type, approximately 10 to 60 CFU per well of bacteria inoculum (100 TCID50), in a volume of 100 μl in 2.8× Mueller-Hinton broth medium, was added to the rows A to H, except column 12. The same volume of broth medium without inoculum was added to column 12 in row A to H. The cultures were incubated at 37° C. for 24 hours under a normal atmosphere (incubator with open air valve and continuous ventilation). At the end of incubation, one day after inoculation, the bacterial growth was quantitated fluorometrically. Therefore resazurin (0.6 mg/ml) was added in a volume of 20 μl to all wells 3 hours after inoculation, and the plates were re-incubated overnight. A change in colour from blue to pink indicated the growth of bacteria. The fluorescence was read in a computer-controlled fluorometer (Cytofluor Biosearch) at an excitation wavelength of 530 nm and an emission wavelength of 590 nm. The % growth inhibition achieved by the compounds was calculated according to standard methods. The IC90 (expressed in μg/ml) was defined as the 90% inhibitory concentration for bacterial growth. The results are shown in Table 7 for an assay using a Staphylococcus aureus strain.

Converted amounts (≈) assume the structure as drawn.

`COc1nc2ccc(Br)cc2cc1C(c1cccc(Cl)c1)C1(O)CCNCC1.O=C(O)/C=C/C(=O)O` (racemic) [Compound 98]: in assay [1], the “IC90 (μg/ml) MSM 607” value was 7.83 µg/mL. The “IC90 (μg/ml) STA B29213” value in assay [2] worked out at 15.62 µg/mL.
The matching figures for `COc1nc2ccc(Br)cc2cc1C(c1cccc(C)c1)C1(O)CCN(Cc2ccccc2)CC1` (stereo not drawn) [Compound 61]: 3.16 µg/mL (≈ 5.95 µM) and 15.85 µg/mL (≈ 29.8 µM).
Consider `COc1nc2ccc(Br)cc2cc1C(c1ccc(S(C)(=O)=O)cc1)C1(O)CCNCC1` (stereo not drawn) [Compound 19], for which the IC90 in assay [1] and in assay [2] was greater than 16.1 µg/mL in each case.
As to `COc1nc2ccc(Br)cc2cc1C(c1ccc(Cl)cc1)C1(O)CCN(Cc2ccccc2C)CC1` (stereo not drawn) [Compound 62], the “IC90 (μg/ml) MSM 607” value in assay [1] is 3.16 µg/mL (≈ 5.58 µM). Further, the “IC90 (μg/ml) STA B29213” value in assay [2] stood at 15.85 µg/mL (≈ 28 µM).
The like results for `Cn1c(=O)c(C(c2ccc(Cl)cc2)C2(O)CCN(Cc3ccccc3)CC2)cc2cc(Br)ccc21` (stereo not drawn) [Compound 96] were, in that order, 6.19 µg/mL (≈ 11.2 µM) and 13.86 µg/mL (≈ 25.1 µM).
Turning to `COc1nc2ccc(Br)cc2cc1C(c1ccc(S(C)(=O)=O)cc1)C1(O)CCN(Cc2ccccc2)CC1` (stereo not drawn) [Compound 20], the IC90 in assay [1] is 3.76 µg/mL (≈ 6.31 µM); in assay [2] it was 7.5 µg/mL (≈ 12.6 µM).
The like results for `CS(=O)(=O)c1ccc2[nH]c(=O)c(C(c3ccccc3)C3(O)CCNCC3)cc2c1` (stereo not drawn) [Compound 100] were, in that order, greater than 11.3 µg/mL and greater than 11.3 µg/mL.
As to `COc1nc2ccc(C(=O)N(C)C)cc2cc1C(c1ccc(Cl)cc1)C1(O)CCN(Cc2ccccc2)CC1` (stereo not drawn) [Compound 108], in assay [1], the “IC90 (μg/ml) MSM 607” value was greater than 13.67 µg/mL. Moreover, the “IC90 (μg/ml) STA B29213” value in assay [2] is greater than 13.67 µg/mL.
For `COc1nc2ccc(Br)cc2cc1C(c1ccccc1Cl)C1(O)CCNCC1.O=C(O)/C=C/C(=O)O` (racemic) [Compound 95], the “IC90 (μg/ml) MSM 607” value in assay [1] was found to be 6.06 µg/mL. Further, the “IC90 (μg/ml) STA B29213” value in assay [2] was determined as 15.22 µg/mL.
The like results for `COc1nc2ccc(Br)cc2cc1C(c1ccc(Cl)cc1)C1(O)CCN(CCc2ccccc2)CC1.O=C(O)/C=C/C(=O)O` (stereo not drawn) [Compound 47] were, in that order, 4.49 µg/mL and 17.86 µg/mL.
The matching figures for `COc1nc2ccc(-c3cccnc3)cc2cc1C(c1ccccc1Cl)C1(O)CCNCC1.O=C(O)/C=C/C(=O)O` (racemic) [Compound 97]: 4.08 µg/mL and 16.25 µg/mL.
The matching figures for `COc1nc2ccc(C(C)C)cc2cc1C(c1ccc(Cl)cc1)C1(O)CCN(CCc2ccccc2)CC1.O=C(O)/C=C/C(=O)O` (racemic) [Compound 91]: 0.63 µg/mL and 3.16 µg/mL.
In the case of `COc1nc2ccc(Br)cc2cc1C(c1ccc(Cl)cc1)C1(O)CCN(Cc2cccc(C#N)c2)CC1.O=C(O)/C=C/C(=O)O` (racemic) [Compound 105], in assay [1], the “IC90 (μg/ml) MSM 607” value came to 14.49 µg/mL. For the same compound, the “IC90 (μg/ml) STA B29213” value in assay [2] is 14.49 µg/mL.
For `COc1nc2ccc(Br)cc2cc1C(c1ccccc1)C1(O)CCN(C)CC1` (stereo not drawn) [Compound 28], in assay [1], the “IC90 (μg/ml) MSM 607” value is 11.09 µg/mL (≈ 25.1 µM). Besides, the “IC90 (μg/ml) STA B29213” value in assay [2] was greater than 27.85 µg/mL.
The matching figures for `COc1nc2ccc(-c3cccnc3)cc2cc1C(c1ccc(Cl)cc1)C1(O)CCNCC1.O=C(O)/C=C/C(=O)O` (racemic) [Compound 93]: 3.05 µg/mL and 10.83 µg/mL.
In the case of `COc1nc2ccc(C(N)=O)cc2cc1C(c1ccc(Cl)cc1)C1(O)CCN(Cc2ccccc2)CC1` (stereo not drawn) [Compound 107], in assay [1], the “IC90 (μg/ml) MSM 607” value came to 12.96 µg/mL (≈ 25.1 µM). In addition, the “IC90 (μg/ml) STA B29213” value in assay [2] was greater than 12.96 µg/mL.
As to `COc1nc2ccc(Br)cc2cc1C(c1ccccc1Cl)C1(O)CCN(Cc2ccccc2)CC1.O=C(O)/C=C/C(=O)O` (racemic) [Compound 67], the “IC90 (μg/ml) STA B29213” value in assay [2] was greater than 43.98 µg/mL.
For the compound `Cl.O=c1[nH]c2ccc(Br)cc2cc1C(c1cccc(Cl)c1)C1(O)CCNCC1` (stereo not drawn) [Compound 101], in assay [1], the “IC90 (μg/ml) MSM 607” value came out at 12.04 µg/mL. The “IC90 (μg/ml) STA B29213” value in assay [2] is greater than 12.04 µg/mL.
The like results for `COc1nc2ccc(Cl)cc2cc1C(c1ccc(Br)cc1)C1(O)CCN(Cc2ccccc2)CC1` (stereo not drawn) [Compound 88] were, in that order, 3.16 µg/mL (≈ 5.73 µM) and 3.98 µg/mL (≈ 7.21 µM).
In the case of `COc1nc2ccc(-c3ccco3)cc2cc1C(c1ccccc1)C1(O)CCN(Cc2ccccc2)CC1` (racemic) [Compound 37], in assay [2], the “IC90 (μg/ml) STA B29213” value was greater than 31.84 µg/mL.
Take `COc1nc2ccc(Br)cc2cc1C(c1ccc(Cl)c(Cl)c1)C1(O)CCN(Cc2ccccc2)CC1.O=C(O)/C=C/C(=O)O` (stereo not drawn) [Compound 65]: in assay [2], the “IC90 (μg/ml) STA B29213” value was greater than 46.15 µg/mL.
Regarding `COc1nc2cc(Br)ccc2cc1C(c1ccccc1)C1(O)CCN(Cc2ccccc2)CC1` (racemic) [Compound 43], the “IC90 (μg/ml) STA B29213” value in assay [2] was found to be 20.60 µg/mL (≈ 39.8 µM).
Regarding `COc1nc2ccc(Br)cc2cc1C(c1ccc(Cl)cc1)C1(O)CCN(Cc2ccccc2)CC1` (stereo not drawn) [Compound 6], the IC90 in assay [1] and in assay [2] was greater than 13.9 µg/mL in each case.
As to `COc1nc2ccc(Br)cc2cc1C(c1ccc(F)c(C)c1)C1(O)CCN(Cc2ccccc2)CC1.O=C(O)/C=C/C(=O)O` (stereo not drawn) [Compound 55], in assay [2], the “IC90 (μg/ml) STA B29213” value is greater than 43.09 µg/mL.
On the same count and under the same terms, the value for `COc1nc2ccc(Br)cc2cc1C(c1cccnc1)C1(O)CCN(Cc2ccccc2)CC1.O=C(O)/C=C/C(=O)O` (stereo not drawn) [Compound 57] was 20.32 µg/mL.
For `COc1nc2ccc(-c3cccnc3)cc2cc1C(c1ccc(Cl)cc1)C1(O)CCN(C)CC1` (racemic) [Compound 94], the “IC90 (μg/ml) MSM 607” value in assay [1] stood at 6.70 µg/mL (≈ 14.1 µM). The “IC90 (μg/ml) STA B29213” value in assay [2] is 14.99 µg/mL (≈ 31.6 µM).
`COc1nc2ccc(Br)cc2cc1C(c1ccc(F)cc1)C1(O)CCN(Cc2ccccc2)CC1.O=C(O)/C=C/C(=O)O` (racemic) [Compound 72]: in assay [2], the “IC90 (μg/ml) STA B29213” value stood at 33.82 µg/mL.
Same read-out and setting: then `COc1nc2ccc(-c3ccccc3)cc2cc1C(c1ccc(Cl)cc1)C1(O)CCN(Cc2ccccc2)CC1.O=C(O)/C=C/C(=O)O` (racemic) [Compound 51], with greater than 42.92 µg/mL; and `O=C(O)/C=C/C(=O)O.OC1(C(c2ccc(Cl)cc2)c2cc3cc(Br)ccc3nc2N2CCOCC2)CCN(Cc2ccccc2)CC1` (stereo not drawn) [Compound 77], with greater than 47.23 µg/mL.
With `Cl.N#Cc1ccc(C(c2cc3cc(Br)ccc3[nH]c2=O)C2(O)CCNCC2)cc1` (stereo not drawn) [Compound 103], the “IC90 (μg/ml) MSM 607” value in assay [1] is greater than 11.93 µg/mL. In addition, the “IC90 (μg/ml) STA B29213” value in assay [2] was greater than 11.93 µg/mL.
As for `COc1nc2ccc(Br)cc2cc1C(c1ccc(Cl)cc1)C1(O)CCN(C2CCN(Cc3ccccc3)CC2)CC1` (stereo not drawn) [Compound 15], in assay [2], the IC90 was 11.3 µg/mL (≈ 17.7 µM).
Consider `CSc1nc2ccc(C)cc2cc1C(c1ccccc1)C1(O)CCN(Cc2ccccc2)CC1` (racemic) [Compound 41], for which the “IC90 (μg/ml) STA B29213” value in assay [2] is greater than 29.57 µg/mL.
In the case of `COc1nc2ccc(Br)cc2cc1C(c1ccco1)C1(O)CCN(Cc2ccccc2)CC1.O=C(O)/C=C/C(=O)O` (stereo not drawn) [Compound 68], in assay [2], the “IC90 (μg/ml) STA B29213” value is greater than 40.66 µg/mL.
Take `COc1nc2ccc(Br)cc2cc1C(c1ccc(Cl)cc1)C1(O)CCNCC1` (stereo not drawn) [Compound 14]: the IC90 in assay [2] was 11.6 µg/mL (≈ 25.1 µM).
On to `COc1nc2ccc(S(C)(=O)=O)cc2cc1C(c1ccccc1)C1(O)CCNCC1.O=C(O)/C=C/C(=O)O` (racemic) [Compound 99], for which the “IC90 (μg/ml) MSM 607” value in assay [1] is greater than 13.31 µg/mL. Also, the “IC90 (μg/ml) STA B29213” value in assay [2] is greater than 13.31 µg/mL.
